From PubChem BioAssay AID1963869 (Molecular Pharmacology Branch, DTP, NCI, 2024)
pIC50: −log10 of the molar value. “And” between values parts separate entries of the source, which are not always exact repeats. Identical values can stand only once.

Test system: KRAS patient-derived spheroids with HUVEC/MSC, viability
Assay: Anticancer human tumor 323965-272-R-J2-PDC patient-derived pancreatic carcinoma cell line growth inhibition [KRAS2]
Settings: for viability, T/C: stronger effect = lower value
Procedure, shortened: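 Combination screen of spheroid viability in tumor-cell co-cultures with endothelial (HUVEC) and mesenchymal stem cell stroma. Each agent was tested in half-log dilutions, topping at clinical Cmax or at 10 microM without a known Cmax.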

[1] = curve of first compound, second compound 0.1 µM
[2] = curve of first compound, second compound 0.316 µM
[3] = curve of first compound, second compound 1 µM
[4] = curve of first compound, second compound 3.16 µM
[5] = curve of first compound, second compound 10 µM
[6] = second compound 0.1 µM, first compound 0.0316 µM
[7] = second compound 0.1 µM, first compound 0.1 µM
[8] = second compound 0.1 µM, first compound 0.316 µM
[9] = second compound 0.1 µM, first compound 1 µM
[10] = second compound 0.316 µM, first compound 0.0316 µM
[11] = second compound 0.316 µM, first compound 0.1 µM
[12] = second compound 0.316 µM, first compound 0.316 µM
[13] = second compound 0.316 µM, first compound 1 µM
[14] = second compound 1 µM, first compound 0.0316 µM
[15] = second compound 1 µM, first compound 0.1 µM
[16] = second compound 1 µM, first compound 0.316 µM
[17] = second compound 1 µM, first compound 1 µM
[18] = second compound 3.16 µM, first compound 0.0316 µM
[19] = second compound 3.16 µM, first compound 0.1 µM
[20] = second compound 3.16 µM, first compound 0.316 µM
[21] = second compound 3.16 µM, first compound 1 µM
[22] = second compound 10 µM, first compound 0.0316 µM
[23] = second compound 10 µM, first compound 0.1 µM
[24] = second compound 10 µM, first compound 0.316 µM
[25] = second compound 10 µM, first compound 1 µM
[26] = second compound 0.1 µM, first compound 0.000316 µM
[27] = second compound 0.1 µM, first compound 0.001 µM
[28] = second compound 0.1 µM, first compound 0.00316 µM
[29] = second compound 0.1 µM, first compound 0.01 µM
[30] = second compound 0.316 µM, first compound 0.000316 µM
[31] = second compound 0.316 µM, first compound 0.001 µM
[32] = second compound 0.316 µM, first compound 0.00316 µM
[33] = second compound 0.316 µM, first compound 0.01 µM
[34] = second compound 1 µM, first compound 0.000316 µM
[35] = second compound 1 µM, first compound 0.001 µM
[36] = second compound 1 µM, first compound 0.00316 µM
[37] = second compound 1 µM, first compound 0.01 µM
[38] = second compound 3.16 µM, first compound 0.000316 µM
[39] = second compound 3.16 µM, first compound 0.001 µM
[40] = second compound 3.16 µM, first compound 0.00316 µM
[41] = second compound 3.16 µM, first compound 0.01 µM
[42] = second compound 10 µM, first compound 0.000316 µM
[43] = second compound 10 µM, first compound 0.001 µM
[44] = second compound 10 µM, first compound 0.00316 µM
[45] = second compound 10 µM, first compound 0.01 µM
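Note: spheroids exposed to agents for 7 days.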
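Throughout, for viability, T/C: 100% = DMSO vehicle control viability.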

SMILES | pIC50 [1] | pIC50 [2] | pIC50 [3] | pIC50 [4] | pIC50 [5] | viability, T/C [6] [%] | viability, T/C [7] [%] | viability, T/C [10] [%] | viability, T/C [11] [%] | viability, T/C [14] [%] | viability, T/C [15] [%] | viability, T/C [18] [%] | viability, T/C [19] [%] | viability, T/C [22] [%] | viability, T/C [23] [%] | viability, T/C [28] [%] | viability, T/C [29] [%] | viability, T/C [32] [%] | viability, T/C [33] [%] | viability, T/C [36] [%] | also measured
COC(=O)c1ccc2c(C(=Nc3ccc(N(C)C(=O)CN4CCN(C)CC4)cc3)c3ccccc3)c(O)[nH]c2c1 + COc1cc2nc(C)nc(NC(C)c3cc(N)cc(C(F)(F)F)c3)c2cc1OC1CCOC1 | < 5.00 | < 5.00 | < 5.00 | < 5.00 | < 5.00 | 92.9 | 102 | 89.3 | 81 | 82.6 | 73.2 | 77.3 | 77.6 | 90.8 | 86 |  |  |  |  |  | viability, T/C [8]: 102%; viability, T/C [9]: 106%; viability, T/C (second compound 0.1 µM, first compound 3.16 µM): 92.6%; viability, T/C (second compound 0.1 µM, first compound 10 µM): 86%; viability, T/C [12]: 84.1%; viability, T/C [13]: 78.8%; viability, T/C (second compound 0.316 µM, first compound 3.16 µM): 78.1%; viability, T/C (second compound 0.316 µM, first compound 10 µM): 74.6%; viability, T/C [16]: 76.8%; viability, T/C [17]: 74.6%; viability, T/C (second compound 1 µM, first compound 3.16 µM): 70.8%; viability, T/C (second compound 1 µM, first compound 10 µM): 68.9%; viability, T/C [20]: 75.6%; viability, T/C [21]: 81.5%; viability, T/C (second compound 3.16 µM, first compound 3.16 µM): 79.3%; viability, T/C (second compound 3.16 µM, first compound 10 µM): 75.7%; viability, T/C [24]: 77.4%; viability, T/C [25]: 72.8%; viability, T/C (second compound 10 µM, first compound 3.16 µM): 77.8%; viability, T/C (second compound 10 µM, first compound 10 µM): 69.7%
Cn1ncnc1[C@H]1c2n[nH]c(=O)c3cc(F)cc(c23)N[C@@H]1c1ccc(F)cc1 |  |  |  |  |  |  |  |  |  |  |  |  |  |  |  |  |  |  |  |  | viability, T/C (compound 0.000316 µM): 107% [middle of 4 runs]; viability, T/C (compound 0.001 µM): 104% [middle of 4 runs]; viability, T/C (compound 0.00316 µM): 109% (2×) and 98.1% and 107%; viability, T/C (compound 0.01 µM): 101% [middle of 4 runs]; viability, T/C (compound 0.0316 µM): 101% [middle of 4 runs]; viability, T/C (compound 0.1 µM): 89.2% [middle of 4 runs]; pIC50 (curve of compound): < 7.00
CC(C)n1nc(-c2ccc3oc(N)nc3c2)c2c(N)ncnc21 + CC1OCC2(CCN(c3cnc(Sc4ccnc(N)c4Cl)c(N)n3)CC2)C1N | 8.91 | > 9.50 | > 9.50 | > 9.50 | > 9.50 | 18.1 | 13.7 | 12.4 | 5.7 | 7.51 | 2.03 | 4.33 | 1.32 | 1.96 | 0.92 | 36.2 | 26.7 | 31.8 | 21 | 26.8 | viability, T/C [26]: 77%; viability, T/C [27]: 52.3%; viability, T/C [30]: 46.2%; viability, T/C [31]: 42.1%; viability, T/C [34]: 47.9%; viability, T/C [35]: 35.9%; viability, T/C [37]: 15.6%; viability, T/C [38]: 36.2%; viability, T/C [39]: 27%; viability, T/C [40]: 21.4%; viability, T/C [41]: 10.4%; viability, T/C [42]: 28.1%; viability, T/C [43]: 22.7%; viability, T/C [44]: 15.6%; viability, T/C [45]: 6.84%
CC(C)n1nc(-c2ccc3oc(N)nc3c2)c2c(N)ncnc21 + CNCc1ccccc1-c1csc(C(C)Nc2nc(C)nc3cc(OC)c(OC)cc23)c1 | 8.67 | 8.70 | 8.57 | 8.61 | > 9.50 | 22.7 | 17.9 | 19.3 | 16.8 | 19.1 | 15.6 | 9.29 | 9.2 | 0.12 | 0.35 | 47.6 | 30.1 | 43.1 | 28.2 | 44.6 | viability, T/C [26]: 84.4%; viability, T/C [27]: 58.7%; viability, T/C [30]: 78.2%; viability, T/C [31]: 60.8%; viability, T/C [34]: 80.6%; viability, T/C [35]: 71.5%; viability, T/C [37]: 29.8%; viability, T/C [38]: 89%; viability, T/C [39]: 76%; viability, T/C [40]: 42.9%; viability, T/C [41]: 16%; viability, T/C [42]: 0.23%; viability, T/C [43]: 0.23%; viability, T/C [44]: 0.19%; viability, T/C [45]: 0.16%
CCN1CCN(Cc2ccc(Nc3ncc(F)c(-c4cc(F)c5nc(C)n(C(C)C)c5c4)n3)nc2)CC1 + C=CC(=O)N1CCN(c2nc(=O)n(-c3c(C)ccnc3C(C)C)c3nc(-c4c(O)cccc4F)c(F)cc23)C(C)C1 | 8.05 | 8.18 | 7.93 | 8.19 | > 8.50 | 39.8 | 37.5 | 38.7 | 29.6 | 36.4 | 35.5 | 38.1 | 39.5 | 37.6 | 36.5 | 57.6 | 54.7 | 59.8 | 46.5 | 51 | viability, T/C [8]: 37.1%; viability, T/C [9]: 43.1%; viability, T/C [12]: 33.5%; viability, T/C [13]: 43.8%; viability, T/C [37]: 52.8%; viability, T/C [16]: 31.6%; viability, T/C [17]: 48.8%; viability, T/C [40]: 56.6%; viability, T/C [41]: 49.1%; viability, T/C [20]: 33.4%; viability, T/C [21]: 51.5%; viability, T/C [44]: 38.6%; viability, T/C [45]: 52.2%; viability, T/C [24]: 37.1%; viability, T/C [25]: 45.4%
